In data set [1] the test system is human red blood cells (hRBCs). The conditions noted are these: highest concentration tested 250 μg/ml, ref Klubthawee et al., 2020; cited from earlier work. The source says: Recently, a 12-mer α-helical, cationic AMP (‘P7’) was designed based on the cathelicidin family using a template-modified strategy, and subsequently modified by truncation and amino acid substitution ([Klubthawee et al., 2020]). […] Furthermore, P7 sho ...

Data set [2] concerns Salmonella enterica serovar Typhimurium ATCC 13311. The class given is cell-based. The following applies: ATCC 13311, standard strain, triplicate; for MIC: broth microdilution, ~10^7 CFU/ml, 37°C, 24 h. On the procedure:
(§1) Salmonella enterica serovar Typhimurium ATCC 13311, 24 drug-resistant foodborne and eleven drug-resistant human borne S. enterica serovar Typhimurium and 4,5,12:i:- isolates (Table 1) were used as test microorganisms. They were previously isolated for molecular characterization in 2014 and kindly provided by Dr. Soraya Chaturongakul (Mahidol University, Thailand) ([Huoy et al., 2014]). All bacteria were cultured in Tryptic Soy Broth (TSB) and incubated at 37°C for 18 h. Mueller Hinton Broth (MHB) was then used to wash and rinse the bacteria. The bacterial suspensions were then diluted to obtain concentrations of 10^7 CFU/ml for inoculations.
(§2) A modified version of the National Committee for Clinical Laboratory Standards (NCCLS) broth microdilution method ([Steinberg et al., 1997]) was used to determine the minimum inhibitory concentrations (MICs) of peptide and compared to that of nisin. Fifty microliters of two-fold serial dilutions of each peptide [0.98–250 μg/ml in 0.01% (v/v) acetic acid and 0.2% (w/v) bovine serum albumin (BSA, Sigma-Aldrich, MO, United States)], were incubated with 50 μl of bacterial suspensions (approximately 10^7 CFU/ml) at 37°C for 24 h in a shaking incubator. MICs were taken as the lowest concentration of peptide at which growth was inhibited as observed by visual inspection. Bacterial cultures without peptides and uncultured broth were used as positive and negative controls, respectively. Minimal bactericidal concentrations (MBCs) were determined using a colony count assay ([Clinical Laboratory Standards Institute [CLSI], 2015]). Fifty microliters of samples from each non-turbid well in the MIC determination experiment was plated on Mueller Hinton Agar (MHA) and colonies were observed after overnight incubation at 37°C. MBCs were designated as the least concentration showing no colony growth on the plate. All of experiments were performed in triplicate.

The test system of data set [3] is L929 mouse fibroblast cells. Description: Cytotoxicity assay (MTT). The class given is cell-based. The following applies: 24 h, up to 125 μg/ml. On the procedure: The toxicity of P7 peptide on L929 mouse fibroblast cells was assessed by a dye reduction assay using 3-(4,5 dimethylthiazol-2-yl)-2,5-diphenyltetrazolium bromide (MTT). Briefly, 3 × 10^4 L929 cells in RPMI 1640 [supplemented with 10% (v/v) fetal bovine serum, 0.2% (w/v) sodium bicarbonate, 2 mM L-glutamine, 100 U/ml penicillin and […] streptomycin] were seeded into each well of 96-well plates and then incubated in a humidified atmosphere with 5% CO2 at 37°C for 24 h. After the incubation period, the peptide was added to obtain final concentrations of 0.98–250 μg/ml; plates were incubated at 37°C under 5% CO2 for 24 h. RPMI 1640 medium with and without cells were used as positive and negative controls, respectively. After incubation, a final concentration of 0.5 mg/ml MTT (Sigma-Aldrich, MO, United States) was added and incubated at 37°C under 5% CO2 for 4 h. Then, the supernatants were removed from each well and 150 μl of dimethyl sulfoxide (DMSO) was added and mixed thoroughly to solubilize the formazan crystals. Subsequently, absorbance was measured at 570 nm using a microplate reader. The cell viability (%) was calculated according to the formula:
%Cellviability=ODTreated-ODBlank/ODUntreated-ODBlank×100

The subject of data set [4] is S. enterica serovar Typhimurium ATCC 13311. The class given is cell-based, Salmonella enterica serovar Typhimurium. The method, then: as §2
The stability of P7 was tested by determining its antibacterial activity after exposure to different environmental conditions (high salt concentration, different ranges of pH, proteolytic enzymes and high temperatures) as previously described ([Shwaiki et al., 2020]). To test the effect of salts on the antibacterial activity of P7, 10^7 CFU/ml of S. enterica serovar Typhimurium ATCC 13311 was exposed to two-fold serially diluted concentrations (0.98–250 μg/ml) of P7 in the presence of different salts including NaCl (150 mM), KCl (4.5 mM), MgCl2 (1 mM), NH4Cl (6 μM), ZnCl2 (8 μM), FeCl3 (4 μM), and CaCl2 ([…]) ([Xu et al., 2014]). To determine pH stability, the pH of the peptide’s solution was adjusted to 3, 5, 7, 9, and 11 using 1 M NaOH or 1 M acetic acid (CH3COOH). P7 were incubated in the different pH conditions for 1 h, then transferred to inoculated MHB for antibacterial testing ([Chen et al., 2020]), There was no change of the pH following the addition of peptide. To determine the sensitivity of peptide to proteolytic enzymes, the residual activity of P7 was measured after incubation the peptide with 1 mg/ml (final concentration) of proteolytic enzymes (pepsin or trypsin) at 37°C for 1 h and heat denaturation at 80°C for 1 h. To study thermostability, peptides were pre-incubated without bacteria at various temperatures (40, 60, 80, and 100°C) for 1 h and left to cool for 30 min before testing. After these treatments, the antibacterial assays were carried out and MICs determined as described in section “Antibacterial activity assay.”

Data set [5] deals with S. enterica serovar Typhimurium H1-041 (clinical isolate). The data set is described as follows: MIC/MBC, broth microdilution and colony count. The class given is cell-based, Salmonella enterica serovar Typhimurium. The following applies: H1-041, stool, resistant Amp, Ctx, C, T, SxT, intermediate Amc, Cp, NA, broth microdilution, 37°C, 24 h. The method, then:
as §1, §2

Data set [6] has as its system S. enterica serovar Typhimurium H1-062 (clinical isolate). Description: MIC/MBC, broth microdilution and colony count. The class given is cell-based, Salmonella enterica serovar Typhimurium. The conditions noted are these: H1-062, stool, resistant Amc, Amp, Ctx, C, NA, T, intermediate Cp, broth microdilution, 37°C, 24 h. On the procedure:
as §1, §2

Setting [7] is: peptide pre-incubated at 40°C for 1 h, cooled 30 min.

Like-named read-outs stand apart in the source and are kept apart here. Ends that are not written are not given here. Bounds are passed on as bounds.

Data on two substances can be found in paper PMC7838546, “A Thermostable, Modified Cathelicidin-Derived Peptide With Enhanced Membrane-Active Activity Against Salmonella enterica serovar Typhimurium” (Frontiers in Microbiology, 2021).

With KIAKRIWKILRR-NH2 [P7], the Hemolysis result in data set [1] is reported as “less than 5%”. Further, the MIC is 3.91 (3.91) μg/ml in data set [2]; 7.81 µg/mL in data set [4] (ATCC 13311, 1 h); 7.81 µg/mL in data set [4] (ATCC 13311, 1 h, pH 3); 7.81 µg/mL in data set [4] (ATCC 13311, 1 h, pH 5); 7.81 µg/mL in data set [4] (ATCC 13311, 1 h, pH 7); 7.81 µg/mL in data set [4] (ATCC 13311, 1 h, pH 9). Further, the MIC was 7.81 µg/mL in data set [4] (ATCC 13311, 1 h, pH 11); 7.81 µg/mL in data set [4] (ATCC 13311, 24 h); 3.91 µg/mL in data set [4] (Control (no salt)); 31.25 µg/mL in data set [4] (MgCl2 (1 mM)); 31.25 µg/mL in data set [4] (NaCl (150 mM)); 31.25 µg/mL in data set [4] (after pepsin 1 mg/ml, 37°C, 1 h, then heat denaturation 80°C). Further, the MIC is 31.25 µg/mL in data set [4] (after trypsin 1 mg/ml, 37°C, 1 h, then heat denaturation 80°C); 3.91 µg/mL in data set [4] (setting [7]); 3.91 µg/mL in data set [4] (peptide pre-incubated at 60°C for 1 h, cooled 30 min). Moreover, the MBC in data set [2] (colony count on MHA) is 3.91 (3.91) μg/ml; in data set [4] (ATCC 13311, 1 h, pH 3), 15.63 µg/mL; in data set [4] (ATCC 13311, 1 h, pH 5), 7.81 µg/mL; in data set [4] (ATCC 13311, 1 h, pH 7), 7.81 µg/mL; in data set [4] (ATCC 13311, 1 h, pH 9), 7.81 µg/mL; in data set [4] (ATCC 13311, 1 h, pH 11), 15.63 µg/mL. For the same substance, the MBC in data set [4] (Control (no salt)) and in data set [4] (setting [7]) was 3.91 µg/mL each time. Besides, the “Cytotoxicity on L929 cells” value in data set [3] is recorded as “no cytotoxicity”.
Consider “Nisin: authorized food preservative peptide, binds lipid II and forms membrane pores (ITSISLCTPGCKTGALMGCNMKTATCHCSIHVSK; cysteine pairing not given here; also: lantibiotic nisin-A; UniProt P13068 24-57, looked up)”, for which the MIC in data set [2], in data set [5] and in data set [6] was greater than 1000 µg/mL each time.
